Source: patent publication US20260284082A1, “TARGETING THE PANX1-P2Y2R-TRPV4 PATHWAY TO TREAT LUNG ISCHEMIA-REPERFUSION INJURY” (UNIVERSITY OF VIRGINIA PATENT FOUNDATION, priority 2023, published 2026)

How the values were obtained:
TRPV4 = conditions: cited from earlier work
mouse model of lung IRI = test: Murine lung IR model (left-lung hilar ligation), pre-treatment with P2Y2R inhibitor; type: in vivo, mice; conditions: AR-C 5 mg/kg via jugular vein 1 hr prior to hilar ligation; 1 h ischemia + 2 h reperfusion
Protocol: Murine lung IR model. A left-lung hilar-ligation model of IRI in mice involving 1 hour of ligation (ischemia) followed by 2 hours of reperfusion.^9,20 Partial pressure of oxygen, lung compliance, lung edema, neutrophil infiltration, and cytokine levels in bronchoalveolar lavage fluid were assessed. Exposure of small pulmonary arteries and pulmonary microvascular endothelial cells to acute hypoxia-reoxygenation were used as ex vivo and in vitro surrogate models of IR, respectively.
Murine lung IR model: A well-established left lung IRI model involving temporary in vivo ligation of the left hilum (pulmonary artery, vein, and airway) was used.^6 Briefly, mice were anesthetized with inhaled isoflurane, intubated, ventilated with room air at 150 strokes/min with a tidal volume of […] (Harvard Apparatus Co, South Natick, MA), and heparinized (20 U/kg: Hospira Inc, Lake Forest, IL). […] Animals were again extubated, recovered in their cage, and monitored during the 2-hour reperfusion period. […]
Partial pressure of arterial oxygen (PaO2): After reperfusion, animals were anesthetized, intubated, and ventilated with 100% oxygen. […] Left lung-specific PaO2 was immediately measured using an i-STAT handheld blood analyzer and CG4+ cartridge (Abbott Point of Care, Princeton, NJ).
Lung wet-to-dry weight ratio: Lung wet-to-dry weight ratio was measured as an indicator of pulmonary edema. […]

Row | SMILES | reversibility of TRPV4 inhibition (TRPV4) | partial pressure of oxygen (PaO2) after IR (lung function) (mouse model of lung IRI) | pulmonary edema (lung wet-to-dry weight ratio) after IR (mouse model of lung IRI)
1 | O=C(NC1(c2ccccc2)CC1)c1c(CN2CCC(N3CCCCC3)CC2)c(-c2cccc(C(F)(F)F)c2)nc2cc(Br)ccc12 [GSK219, GSK2193874] | reversible | – | –
2 | Cc1ccc2c(c1)C=Cc1cc(C)ccc1C2c1cn(Cc2ccc(C(=O)Nc3nn[nH]n3)o2)c(=O)[nH]c1=S [ARC, AR-C 118925XX] | – | improved | not in mice pre-treated with P2Y2R inhibitor AR-C
